For one series, the system named is IDH2 R172 U87MG. As to the kind of experiment: IDH2 cellular 2-HG assay in R172 U87MG cells. The class given is cell-based. Particulars: read-out: IDH2 IC50 R172 U87MG.
A further series concerns the target T1, IDH2 SW1353 cell 2-HG (Homo sapiens, UniProt P48735, R172S).
T1 sequence (P48735 40-452 R172S): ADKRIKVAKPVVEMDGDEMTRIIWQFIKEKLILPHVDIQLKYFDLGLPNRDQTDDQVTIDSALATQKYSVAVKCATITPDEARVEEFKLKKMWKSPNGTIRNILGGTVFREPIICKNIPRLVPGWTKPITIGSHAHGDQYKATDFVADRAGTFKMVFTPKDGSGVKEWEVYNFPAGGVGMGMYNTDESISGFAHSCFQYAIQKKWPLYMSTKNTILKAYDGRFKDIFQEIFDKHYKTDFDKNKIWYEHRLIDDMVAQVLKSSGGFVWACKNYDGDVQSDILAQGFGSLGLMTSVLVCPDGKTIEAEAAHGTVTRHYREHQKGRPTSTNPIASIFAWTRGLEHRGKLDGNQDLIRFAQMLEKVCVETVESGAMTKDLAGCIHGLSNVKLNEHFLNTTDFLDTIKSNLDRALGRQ
As to the kind of experiment: IDH2 cellular 2-HG assay in SW1353 cells. The class given is cell-based. The note with it: read-out: IDH2 IC50 SW1353 cell 2-HG.

The target in the next series is homodimeric R132H IDH1 (Homo sapiens, UniProt O75874, R132H). The experiment in a line: Biochemical mechanism of inhibition analysis. The note with it: by analogy with close analog.
In series [1] the test system is H3K9me2 in R132C IDH1 expressing HT-1080 cells. As to the kind of experiment: Western blot of histone H3K9me2 in HT-1080 cells. The class given is cell-based, human. The note with it: 48 hours of treatment. (In general: A western blot detects proteins with antibodies after separation by electrophoresis.)
Series [2] in a line: Stability of compounds in media. The class given is physicochemical.
Series [3] relates to R132G IDH1 AML cells. The experiment in a line: Intracellular 2-HG in primary R132G IDH1 AML cells ex vivo. The class given is cell-based, human. Particulars: 1.7 μM.
The test system of series [4] is R132G IDH1 AML cells. As to the kind of experiment: Cell cycle analysis. The class given is cell-based, human. Particulars: 3 μM, 7 days.
For another series, the system named is R132C IDH1 AML cells. The experiment in a line: Cell cycle analysis. The class given is cell-based, human. The note with it: 3 μM, 7 days.
In series [5] the test system is R132G IDH1 AML cells. As to the kind of experiment: Blast and G/M cell fractions by CD45/SSC flow cytometry. The class given is cell-based, human. The note with it: 3 μM, 7 days. In general terms: A flow cytometer gives signals particle by particle.
For a further series, the system named is leukemic blasts. As to the kind of experiment: Leukemic blast analysis including HLA-DR and c-Kit markers. The class given is cell-based, human.
For series [6], the system named is R132G IDH1 mutant AML cells. The experiment in a line: DNA methylation profiling by ERRBS. The class given is cell-based, human. Particulars: q-value < 0.001, methylation difference ≥ 25%.
For series [7], the system named is primary IDH1-mutant human AML cells in NSG mice. As to the kind of experiment: Xenotransplantation of primary IDH1 mutant AML cells in NSG mice. The class given is in vivo.
The conditions of series [8]: PAMPA, pH 7.4.
Series [9] has as its target R132C IDH1 mutant HT-1080 cells (Homo sapiens, UniProt O75874, R132C). As to the kind of experiment: Quantification of intracellular 2-HG in HT-1080 cells. The class given is cell-based.
A short description of series [10]: Pharmacokinetic analysis in mouse. The class given is in vivo. The note with it: CD-1 mice, IP, 213 mg/kg, up to 24 hours.
The series “SEC” deals with the molecule itself. As to the kind of experiment: SEC. (In general: In gel filtration, larger molecules generally elute earlier.)

This note sets out measurements from article PMC5155016 (Nature chemical biology, 2015).

Changes are numbered by the printed parent chain. Names may count otherwise.

As a reminder, the IC50 is the midpoint of a concentration-inhibition curve. A word on the EC50: it is the concentration that produces a half-maximal response. A lower EC50 goes with greater potency.

Chain of homodimeric R132H IDH1 (O75874 whole entry R132H): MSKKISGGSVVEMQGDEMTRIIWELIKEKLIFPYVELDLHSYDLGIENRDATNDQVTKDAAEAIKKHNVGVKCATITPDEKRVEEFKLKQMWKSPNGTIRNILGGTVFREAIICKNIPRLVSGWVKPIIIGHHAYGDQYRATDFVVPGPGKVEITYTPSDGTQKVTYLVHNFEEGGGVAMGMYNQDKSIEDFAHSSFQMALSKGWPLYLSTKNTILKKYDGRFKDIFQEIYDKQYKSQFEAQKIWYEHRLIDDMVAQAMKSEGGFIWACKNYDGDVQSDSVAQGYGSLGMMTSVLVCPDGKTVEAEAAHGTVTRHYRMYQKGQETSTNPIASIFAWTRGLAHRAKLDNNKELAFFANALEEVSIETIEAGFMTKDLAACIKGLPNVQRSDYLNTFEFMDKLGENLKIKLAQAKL
Chain of R132C IDH1 mutant HT-1080 cells (O75874 whole entry R132C): as the sequence (O75874 whole entry R132H) above, with H132C counted along it
Chain of R132C IDH1 mutant HT-1080 cells (O75874 whole entry partner): as the sequence (O75874 whole entry R132H) above, with H132R counted along it

With `C[C@H](O)c1cccc(NC(=O)c2nn(Cc3ccc(F)cc3)c3c2CN(C(=O)c2ccc[nH]2)C[C@H]3C)c1` [GSK321, (7R)-1-[(4-fluorophenyl)methyl]-N-{3-[(1S)-1-hydroxyethyl]phenyl}-7-methyl-5-(1H-pyrrol-2-ylcarbonyl)-4,5,6,7-tetrahydro-1H-pyrazolo[4,3c]pyridine-3-carboxamide], the IC50 in the series with IDH2 R172 U87MG came to 7.94 µM. Also, the IC50 at IDH2 SW1353 cell 2-HG was 4.69 µM. Besides, on homodimeric R132H IDH1, the “Mechanism of action versus NADPH” value is given as “mixed vs NADPH” and the “Mechanism of action versus αKG” value is reported as “competitive vs αKG”. Moreover, the “Effect on histone H3K9me2 levels” value in series [1] is given as “markedly decreased H3K9me2 levels”. The Stability in media entry in series [2] is on record as “at least 14 days”. For the same molecule, in the series on R132G IDH1 AML cells [3], the “Inhibition of intracellular 2-HG” value came to 78%. For the same molecule, in the series with R132G IDH1 AML cells [4], the “Cells in G1-phase, R132G IDH1” value was determined as 57.9 ± 6.9% and the “Quiescent (G0)-phase cells, R132G IDH1” value came out at 36.7 ± 4.4%. Also, in the series on R132C IDH1 AML cells, the “Cells in G1-phase, R132C IDH1” value worked out at 66.8 ± 12.0% and the “Quiescent (G0)-phase cells, R132C IDH1” value is 24.0 ± 11.8%. Further, the “Fraction of leukemic blast cells (CD45low/+ SSClow) in comparison to DMSO” value with R132G IDH1 AML cells [5] is given as 0.7 ± 0.1 fold. The “Leukemic blasts, analysis including HLA-DR and c-Kit markers” value with leukemic blasts is given as 0.4 ± 0.2 fold. In series [6] (3 μM, 6 days, vs controls), the “Hypermethylated CpG loci” value was 10153 and the “Hypomethylated CpG loci” value worked out at 18668. For the same molecule, in series [6] (1kb tiles), the “Hypermethylated regions (DMRs)” value came to 1157 and the “Hypomethylated regions (DMRs)” value amounted to 2075. In addition, the “2HG in IDH1-mutant AML cells of treated mice” value in [7] (NSG mice) was “decrease in 2HG”. In [8], the “AMP (artificial membrane permeability)” value amounted to 32.4 ×10⁻⁶ cm/s and the AMP permeability class result is listed as “high”.
The molecule `COc1c(C)cc(NC(=O)c2nn(Cc3ccc(F)cc3)c3c2CN(C(=O)c2ccc[nH]2)C[C@]3(C)C(N)=O)cc1C` [GSK864] registered an EC50 in series [9] of 0.32 µM. Further, the “Blood concentrations after intraperitoneal administration” value in series [10] is “significant concentrations of GSK864 were maintained”. Moreover, the “Percentage of blast cells (SSClow CD45low/+) in bone marrow” value in series [7] (NSG mice, 150 mg/kg) is on record as “significant decrease in the percentage of blast cells”. Moreover, the “huCD45+ CD38+ cells in bone marrow” value in [7] (R132C or R132H IDH1 mutant engrafted NSG mice, 150 mg/kg) was “slightly increased numbers of huCD45^+ CD38^+ cells”.

B1: IDH2(40-452)Flag wild type (enzyme, human, UniProt P48735 40-452, looked up)
chain: T1 sequence (P48735 40-452 R172S) with S133R
Consider B1, for which the binding result in “SEC” is reported as “binds”.

B2: IDH2(40-452)Flag R140Q (enzyme, human, UniProt P48735 40-452, looked up)
chain: T1 sequence (P48735 40-452 R172S) with R101Q, S133R
As for B2, in “SEC”, the binding result is given as “binds”.

B3: IDH2(40-452)Flag R172S (enzyme, human, UniProt P48735 40-452, looked up)
chain: T1 sequence (P48735 40-452 R172S)
For B3, the binding result in “SEC” was “binds”.
